Test results: ChEMBL document CHEMBL1201862, “PubChem BioAssay data set” (2004)
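Five concentrations, 48 hours, 96-well plates. GI50: concentration for 50% inhibition of growth.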 Activity calls are given as the source filed them. No stated cut-off is given here; in the data, active = GI50 up to about 1.1 µM and inactive = higher.

How the values were obtained:
Experiment in all cases: inhibition of tumour cell growth, NCI panel, 48 h
OVCAR-4 = test system: OVCAR-4
UO-31 = test system: UO-31
HOP-92 = test system: HOP-92
SR = test system: SR
OVCAR-5 = test system: OVCAR-5
SW-620 = test system: SW-620
NCI-H522 = test system: NCI-H522
SNB-19 = test system: SNB-19
UACC-257 = test system: UACC-257
T47D = test system: T47D
HL-60 = test system: HL-60
COLO 205 = test system: COLO 205
HOP-62 = test system: HOP-62
OVCAR-3 = test system: OVCAR-3
OVCAR-8 = test system: OVCAR-8
CAKI-1 = test system: CAKI-1
U-251 = test system: U-251
SF-539 = test system: SF-539
MDA-MB-435 = test system: MDA-MB-435
A498 = test system: A498

Compound	GI50 (OVCAR-4)	GI50 (UO-31)	GI50 (HOP-92)	GI50 (SR)	GI50 (OVCAR-5)	GI50 (SW-620)	GI50 (NCI-H522)	GI50 (SNB-19)	GI50 (UACC-257)	GI50 (T47D)	GI50 (HL-60)	GI50 (COLO 205)	GI50 (HOP-62)	GI50 (OVCAR-3)	GI50 (OVCAR-8)	GI50 (CAKI-1)	GI50 (U-251)	GI50 (SF-539)	GI50 (MDA-MB-435)	GI50 (A498)
O=Nc1c(-c2cccc([N+](=O)[O-])c2)nc2cnccn12	17.7 µM (inactive)	11.7 µM (inactive)	20 µM (inactive)	2.2 µM (inactive)	20.1 µM (inactive)	10.1 µM (inactive)	14.6 µM (inactive)	> 100 µM (inactive)	19.7 µM (inactive)	15.1 µM (inactive)	34.2 µM (inactive)	20 µM (inactive)	26.6 µM (inactive)	16.8 µM (inactive)	14.5 µM (inactive)	17 µM (inactive)	20.4 µM (inactive)	20.3 µM (inactive)	20.1 µM (inactive)	
CC1=CC(=O)/C(=C/NC(=S)C(N)=S)C(=O)O1	> 100 µM (inactive)	> 100 µM (inactive)	> 100 µM (inactive)	47.2 µM (inactive)	> 100 µM (inactive)	> 100 µM (inactive)	> 100 µM (inactive)	> 100 µM (inactive)	> 100 µM (inactive)	> 100 µM (inactive)	47.5 µM (inactive)	> 100 µM (inactive)	> 100 µM (inactive)	> 100 µM (inactive)	> 100 µM (inactive)	> 100 µM (inactive)	> 100 µM (inactive)	> 100 µM (inactive)	> 100 µM (inactive)	
Cn1cnc([N+](=O)[O-])c1[Se]c1ncnc2nc[nH]c12	3.32 µM (inactive)	3.65 µM (inactive)	12.2 µM (inactive)	2.04 µM (inactive)	11.4 µM (inactive)	10.3 µM (inactive)	3.57 µM (inactive)	24 µM (inactive)	2.04 µM (inactive)	15.2 µM (inactive)		15.1 µM (inactive)	12 µM (inactive)	2 µM (inactive)	8.79 µM (inactive)	0.925 µM (active)	4.6 µM (inactive)	13.4 µM (inactive)	2 µM (inactive)	3.59 µM (inactive)
O=C(NCc1ccccc1)c1cnc(Cl)cn1	16.7 µM (inactive)	18.1 µM (inactive)	13.7 µM (inactive)	20.7 µM (inactive)		> 100 µM (inactive)	2.12 µM (inactive)	63.8 µM (inactive)	53 µM (inactive)	74 µM (inactive)	> 100 µM (inactive)	> 100 µM (inactive)		31.2 µM (inactive)	52.4 µM (inactive)	16.2 µM (inactive)	48.2 µM (inactive)	> 100 µM (inactive)	62.7 µM (inactive)	> 100 µM (inactive)
Cc1ccc(SCC(OCn2cnc3c(N)ncnc32)[C@H](C)F)cc1 (stereo partly specified)	> 100 µM (inactive)	> 100 µM (inactive)	54.5 µM (inactive)	> 100 µM (inactive)	> 100 µM (inactive)	> 100 µM (inactive)	> 100 µM (inactive)	> 100 µM (inactive)	> 100 µM (inactive)	> 100 µM (inactive)	> 100 µM (inactive)	> 100 µM (inactive)	> 100 µM (inactive)	> 100 µM (inactive)	> 100 µM (inactive)	> 100 µM (inactive)	> 100 µM (inactive)	> 100 µM (inactive)	> 100 µM (inactive)	
CN(C)Cc1ccc(O)c(CN(C)C)n1	> 100 µM (inactive)	> 100 µM (inactive)	> 100 µM (inactive)	> 100 µM (inactive)	> 100 µM (inactive)	> 100 µM (inactive)	> 100 µM (inactive)	> 100 µM (inactive)	> 100 µM (inactive)	> 100 µM (inactive)		> 100 µM (inactive)	> 100 µM (inactive)	> 100 µM (inactive)	> 100 µM (inactive)	> 100 µM (inactive)	> 100 µM (inactive)	> 100 µM (inactive)	> 100 µM (inactive)	> 100 µM (inactive)
COCN(CCC1=CCCCC1)C(=O)OC	> 100 µM (inactive)	46.3 µM (inactive)	> 100 µM (inactive)	> 100 µM (inactive)	> 100 µM (inactive)	> 100 µM (inactive)	38.1 µM (inactive)	> 100 µM (inactive)	> 100 µM (inactive)	89.1 µM (inactive)		> 100 µM (inactive)	> 100 µM (inactive)	76.7 µM (inactive)	> 100 µM (inactive)	> 100 µM (inactive)	> 100 µM (inactive)		> 100 µM (inactive)	> 100 µM (inactive)
